Source: US20240024324A1, “KINASE INHIBITOR COMBINATIONS FOR CANCER TREATMENT” (Merck Patent GmbH, priority 2020, published 2024)

Key:
[1] = test system: GSC7-2; experiment: Induction of apoptosis in GSC lines in vitro; format: cell-based
Method: (§1) FIG. 1: In vitro analyses in GSC lines. (A) Western blot analysis of protein expression; (B) IC50 of M2698; (C) IC50 of pimasertib; and (D) apoptotic GSC11, GSC7-2, and GSC17 cells after treatment with M2698, pimasertib, or M2698+pimasertib combination. […]
(§2) Induction of apoptosis by M2698, pimasertib, and the combination was measured in three of five GSC lines that were sensitive to M2698 in vitro.

[2] = test system: GSC17; experiment: Induction of apoptosis in GSC lines in vitro; format: cell-based
Method: as §1, §2

[3] = test system: GSC11; experiment: Induction of apoptosis in GSC lines in vitro; format: cell-based
Method: as §1, §2

[4] = test system: GSC7-2; experiment: Orthotopic GSC xenograft model; format: in vivo, mice
Method: (§3) The in vivo effects of M2698 and pimasertib, alone and in combination, were assessed in the GSC models after orthotopic implantation into mice. Treatment duration and time of euthanasia post-implantation was 5-10 weeks. Endpoints were expression of PD markers pS6 and pERK, proliferation marker Ki67, apoptosis as measured by TUNEL, tumor volume and survival.

[5] = test system: GSC272; experiment: Orthotopic GSC xenograft model; format: in vivo, mice
Method: as §3

[6] = test system: GSC17; experiment: Orthotopic GSC xenograft model; format: in vivo, mice
Method: as §3

[7] = test system: GSC11; experiment: Orthotopic GSC xenograft model; format: in vivo, mice
Method: as §3

[8] = test system: GSC231; experiment: Orthotopic GSC xenograft model; format: in vivo, mice
Method: as §3

[9] = test system: GSC20; experiment: Orthotopic GSC xenograft model; format: in vivo, mice
Method: as §3

[10] = test system: GSC6-27; experiment: Orthotopic GSC xenograft model; format: in vivo, mice
Method: as §3

[11] = test system: Her2+/HR− Breast Cancer PDX; experiment: PDX models of Her2+/HR- breast cancer; format: in vivo
[12] = test system: Colorectal Cancer PDX; experiment: 75 PDX models of colorectal cancer; format: in vivo; conditions: CRC PDX; M2698 25 mg/kg po qd, Pimasertib 20 mg/kg po qd, Cetuximab 20 mg/kg ip q2w
Source text: Of the 75 models, 25 were wild type, 25 KRas mutant, and 25 BRaf mutant.

[13] = test system: GSC272; experiment: GSC lines: sensitivity in vitro (IC50); format: cell-based; conditions: GSC272 line in vitro
Method: FIG. 1: In vitro analyses in GSC lines. (A) Western blot analysis of protein expression; (B) IC50 of […]; (C) IC50 of pimasertib; and (D) apoptotic GSC11, GSC7-2, and GSC17 cells after treatment with […], pimasertib, or […]+pimasertib combination. Single agents were tested at their IC50; half the IC50 of each compound was used for the combination. In vitro IC50 data were used to select GSC lines for in vivo studies; […] All GSC lines expressed Akt. Relatively high pAkt expression in GSC17, GSC7-2, GSC231, GSC11, GSC20, GSC6-27, and GSC8-11 lines compared with GSC272 and GSC267 (FIG. 1A). […] (FIG. 1B).

[14] = in vivo; cited from earlier work
[15] = test system: human cholangiocarcinoma cancer PDX; experiment: PDX models of cholangiocarcinoma; format: in vivo, mice; conditions: 20 mg/kg each agent QD PO
Source text: The objective of this experiment was to evaluate the antitumor activity of M2698 alone and in combination with Pimasertib in a panel of 13 Patient-Derived Xenograft models representing human cholangiocarcinoma cancer derived from Chinese patients in immune-deficient mice.
Vehicle: 0.5% Methocel/0.25% Tween20 in Milli-Q Water. Tumors from three untreated mice were collected as satellite samples when reached a tumor volume between 300-500 mm3.

[16] = test system: Non-Small Lung Cancer (NSCLC) Brain Metastases PDX; experiment: PDX models of NSCLC brain metastases; format: in vivo
[17] = test system: GSC7-2; experiment: GSC lines: sensitivity in vitro (IC50); format: cell-based
Method: (§4) FIG. 1: In vitro analyses in GSC lines. (A) Western blot analysis of protein expression; (B) IC50 of M2698; (C) IC50 of pimasertib; and (D) apoptotic GSC11, GSC7-2, and GSC17 cells after treatment with M2698, pimasertib, or M2698+pimasertib combination. Single agents were tested at their IC50; half the IC50 of each compound was used for the combination.
(§5) All GSC lines expressed Akt. Relatively high pAkt expression in GSC17, GSC7-2, GSC231, GSC11, GSC20, GSC6-27, and GSC8-11 lines compared with GSC272 and GSC267 (FIG. 1A).

[18] = test system: GSC17; experiment: GSC lines: sensitivity in vitro (IC50); format: cell-based
Method: as §4, §5

[19] = test system: GSC11; experiment: GSC lines: sensitivity in vitro (IC50); format: cell-based
Method: as §4, §5

[20] = test system: GSC231; experiment: GSC lines: sensitivity in vitro (IC50); format: cell-based; conditions: GSC231 line in vitro
Method: as §4, §5

[21] = test system: GSC20; experiment: GSC lines: sensitivity in vitro (IC50); format: cell-based
Method: as §4, §5

[22] = test system: GSC6-27; experiment: GSC lines: sensitivity in vitro (IC50); format: cell-based; conditions: GSC6-27 line in vitro
Method: as §4, §5

O=C(NCC(O)CO)c1ccncc1Nc1ccc(I)cc1F (stereo not drawn) [pimasertib, N-(2,3-dihydroxy-propyl)-3-(2-fluoro-4-iodo-phenylamino)-isonicotinamide, reference compound]
apoptotic percentage ([1]; GSC7-2, monotherapy at 2×IC50): 17%
apoptotic percentage ([1]; GSC7-2, monotherapy at the IC50): 13%
apoptotic percentage ([2]; GSC17, monotherapy at 2×IC50): 12%
apoptotic percentage ([2]; GSC17, monotherapy at the IC50): 11%
apoptotic percentage ([3]; GSC11, monotherapy at 2×IC50): 62%
apoptotic percentage ([3]; GSC11, monotherapy at the IC50): 56%
pERK expression in orthotopic tumor ([4]; GSC7-2, PD marker): significantly reduced pERK
median survival ([4]; GSC7-2 orthotopic, vs vehicle): no significant effects on survival
tumor volume / tumor growth ([4]; GSC7-2 orthotopic, vs vehicle): significant tumor growth inhibition
number of apoptotic cells/field ([4]; GSC7-2 xenografts, after 10 weeks): 65.00±60.80 cells/field
apoptosis in xenografts vs control ([4]; GSC7-2 xenografts, at 7.5 weeks): Neither M2698, pimasertib, nor combination treatment significantly affected apoptosis
pERK expression in orthotopic tumor ([5]; GSC272, PD marker): significantly reduced pERK
pS6 expression in orthotopic tumor ([5]; GSC272, PD marker): significantly reduced pS6
cross-pathway reduction of pS6, trend over time ([5]; GSC272, from 7.5-10 weeks): diminished
median survival ([5]; GSC272 orthotopic, vs vehicle): no significant effects on survival
tumor volume / tumor growth ([5]; GSC272 orthotopic, vs vehicle): significant tumor growth inhibition
pERK expression in orthotopic tumor ([6]; GSC17, PD marker): significantly reduced pERK
median survival ([6]; GSC17 orthotopic, vs vehicle): no significant effects on survival
tumor volume / tumor growth ([6]; GSC17 orthotopic, vs vehicle): not affected
proliferation (Ki67 by immunohistochemistry) ([6]; GSC17 tumor sections, compared to vehicle): significantly reduced proliferation
pERK expression in orthotopic tumor ([7]; GSC11, PD marker): significantly reduced pERK
median survival ([7]; GSC11 orthotopic, vs vehicle): no significant effects on survival
pERK expression in orthotopic tumor ([8]; GSC231, PD marker): significantly reduced pERK
pS6 expression in orthotopic tumor ([8]; GSC231, PD marker): significantly reduced pS6
cross-pathway reduction of pS6, trend over time ([8]; GSC231, from 7.5-10 weeks): diminished
median survival ([8]; GSC231 orthotopic, vs vehicle): no significant effects on survival
tumor volume / tumor growth ([8]; GSC231 orthotopic, vs vehicle): trend towards a significant response
pERK expression in orthotopic tumor ([9]; GSC20, PD marker): significant effects of pimasertib treatment on pERK protein were not seen
median survival ([9]; GSC20 orthotopic, vs vehicle): no significant effects on survival
tumor volume / tumor growth ([9]; GSC20 orthotopic, vs vehicle): had not responded
pERK expression in orthotopic tumor ([10]; GSC6-27, PD marker): significantly reduced pERK
median survival ([10]; GSC6-27 orthotopic, vs vehicle): no significant effects on survival
tumor volume / tumor growth ([10]; GSC6-27 orthotopic, vs vehicle): significant tumor growth inhibition
tumor volume over the duration of the experiment [11]: stasis of the tumor volume
tumor control rate (TCR) [12]: 32%
tumor control rate (TCR), models controlled/models [12]: 24/74
IC50 [13]: > 2 µM
blood-brain barrier penetration [14]: brain-penetrant
tumor stasis, number of tumor samples [15]: 1/12
tumor stasis, share of tumor samples [15]: 8%
tumor control rate (TCR) [16]: 16%
sensitivity in vitro ([17]; GSC7-2 line): not sensitive
IC50 ([17]; GSC7-2 line in vitro): > 2 µM
sensitivity in vitro ([18]; GSC17 line): moderately sensitive
IC50 ([18]; GSC17 line in vitro): < 2 µM
sensitivity in vitro ([19]; GSC11 line): most sensitive
IC50 ([19]; GSC11 line in vitro): < 2 µM
IC50 [20]: < 2 µM
sensitivity in vitro ([21]; GSC20 line): insensitivity
IC50 ([21]; GSC20 line in vitro): > 2 µM
IC50 [22]: > 2 µM
